According to PubChem BioAssay (NCI):
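A five-concentration, 48-hour dose response in 96-well plates underlies each endpoint, interpolated linearly between surrounding concentrations. GI50 = concentration required for 50% inhibition of growth. Definition used: TGI = concentration required for complete inhibition of growth.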

What was measured:
Test in all cases: NCI tumour cell line growth inhibition, 48 h
SN12C renal = system: SN12C renal
BT-549 breast = system: BT-549 breast
U251 CNS = system: U251 CNS
NCI-H522 lung = system: NCI-H522 lung
HS 578T breast = system: HS 578T breast
K-562 leukemia = system: K-562 leukemia
SF-539 CNS = system: SF-539 CNS
SK-OV-3 ovarian = system: SK-OV-3 ovarian
RPMI-8226 leukemia = system: RPMI-8226 leukemia
SK-MEL-28 melanoma = system: SK-MEL-28 melanoma
NCI/ADR-RES ovarian = system: NCI/ADR-RES ovarian
MALME-3M melanoma = system: MALME-3M melanoma
HCT-15 colon = system: HCT-15 colon
LOX IMVI melanoma = system: LOX IMVI melanoma
MDA-MB-435 = system: MDA-MB-435
A498 renal = system: A498 renal
NCI-H226 lung = system: NCI-H226 lung
SNB-75 CNS = system: SNB-75 CNS
CAKI-1 renal = system: CAKI-1 renal
HCC-2998 colon = system: HCC-2998 colon
OVCAR-8 ovarian = system: OVCAR-8 ovarian
MCF7 breast = system: MCF7 breast
HOP-92 NSCLC = system: HOP-92 NSCLC
KM12 colon = system: KM12 colon
OVCAR-5 ovarian = system: OVCAR-5 ovarian
UO-31 renal = system: UO-31 renal
OVCAR-3 ovarian = system: OVCAR-3 ovarian
NCI-H23 lung = system: NCI-H23 lung
SF-295 CNS = system: SF-295 CNS
HOP-62 NSCLC = system: HOP-62 NSCLC
TK-10 renal = system: TK-10 renal
MDA-MB-468 breast = system: MDA-MB-468 breast
MDA-MB-231 breast = system: MDA-MB-231 breast
SK-MEL-5 melanoma = system: SK-MEL-5 melanoma
T-47D breast = system: T-47D breast
SW-620 colon = system: SW-620 colon
RXF 393 renal = system: RXF 393 renal
SK-MEL-2 melanoma = system: SK-MEL-2 melanoma
786-0 renal = system: 786-0 renal
CCRF-CEM leukemia = system: CCRF-CEM leukemia
SNB-19 CNS = system: SNB-19 CNS
IGROV1 ovarian = system: IGROV1 ovarian
A549 NSCLC = system: A549 NSCLC
OVCAR-4 ovarian = system: OVCAR-4 ovarian
ACHN renal = system: ACHN renal
COLO 205 colon = system: COLO 205 colon
UACC-62 melanoma = system: UACC-62 melanoma
EKVX NSCLC = system: EKVX NSCLC
SF-268 CNS = system: SF-268 CNS
NCI-H460 lung = system: NCI-H460 lung

Compound: Cc1ccc(/C(CSc2nnc(-c3c[nH]c4ccccc34)n2-c2ccccc2)=N/O)cc1
- GI50 (SN12C renal): 2.33 µM
- TGI (SN12C renal): 6.8 µM
- GI50 (BT-549 breast): 1.59 µM
- TGI (BT-549 breast): 3.03 µM
- GI50 (U251 CNS): 8.22 µM
- TGI (U251 CNS): > 100 µM
- GI50 (NCI-H522 lung): 2.24 µM
- TGI (NCI-H522 lung): 6.04 µM
- GI50 (HS 578T breast): 2.07 µM
- TGI (HS 578T breast): 4.82 µM
- GI50 (K-562 leukemia): 2.01 µM
- TGI (K-562 leukemia): 4.97 µM
- GI50 (SF-539 CNS): 2.06 µM
- TGI (SF-539 CNS): 4.41 µM
- GI50 (SK-OV-3 ovarian): 1.68 µM
- TGI (SK-OV-3 ovarian): 3.64 µM
- GI50 (RPMI-8226 leukemia): 2.05 µM
- TGI (RPMI-8226 leukemia): 4.81 µM
- GI50 (SK-MEL-28 melanoma): 5.67 µM
- TGI (SK-MEL-28 melanoma): 38.7 µM
- GI50 (NCI/ADR-RES ovarian): 2 µM
- TGI (NCI/ADR-RES ovarian): 3.9 µM
- GI50 (MALME-3M melanoma): 2.26 µM
- TGI (MALME-3M melanoma): 5.57 µM
- GI50 (HCT-15 colon): 1.75 µM
- TGI (HCT-15 colon): 3.34 µM
- GI50 (LOX IMVI melanoma): 1.75 µM
- TGI (LOX IMVI melanoma): 3.17 µM
- GI50 (MDA-MB-435): 1.63 µM
- TGI (MDA-MB-435): 3.05 µM
- GI50 (A498 renal): 24.8 µM
- TGI (A498 renal): 89.1 µM
- GI50 (NCI-H226 lung): 1.63 µM
- TGI (NCI-H226 lung): 3.36 µM
- GI50 (SNB-75 CNS): 1.4 µM
- TGI (SNB-75 CNS): 2.77 µM
- GI50 (CAKI-1 renal): 1.63 µM
- TGI (CAKI-1 renal): 3.06 µM
- GI50 (HCC-2998 colon): 2.09 µM
- TGI (HCC-2998 colon): 3.93 µM
- GI50 (OVCAR-8 ovarian): 2.19 µM
- TGI (OVCAR-8 ovarian): 4.89 µM
- GI50 (MCF7 breast): 2.42 µM
- TGI (MCF7 breast): 7.01 µM
- GI50 (HOP-92 NSCLC): 11.9 µM
- TGI (HOP-92 NSCLC): 37.4 µM
- GI50 (KM12 colon): 8.65 µM
- TGI (KM12 colon): > 100 µM
- GI50 (OVCAR-5 ovarian): 1.69 µM
- TGI (OVCAR-5 ovarian): 3.11 µM
- GI50 (UO-31 renal): 1.82 µM
- TGI (UO-31 renal): 4.15 µM
- GI50 (OVCAR-3 ovarian): 4.26 µM
- TGI (OVCAR-3 ovarian): 25.5 µM
- GI50 (NCI-H23 lung): 10.1 µM
- TGI (NCI-H23 lung): 52.2 µM
- GI50 (SF-295 CNS): 1.64 µM
- TGI (SF-295 CNS): 3.18 µM
- GI50 (HOP-62 NSCLC): 1.69 µM
- TGI (HOP-62 NSCLC): 3.42 µM
- GI50 (TK-10 renal): 1.9 µM
- TGI (TK-10 renal): 3.87 µM
- GI50 (MDA-MB-468 breast): 1.5 µM
- TGI (MDA-MB-468 breast): 2.91 µM
- GI50 (MDA-MB-231 breast): 1.77 µM
- TGI (MDA-MB-231 breast): 3.33 µM
- GI50 (SK-MEL-5 melanoma): 4.76 µM
- TGI (SK-MEL-5 melanoma): 48.1 µM
- GI50 (T-47D breast): 2.07 µM
- TGI (T-47D breast): 4.75 µM
- GI50 (SW-620 colon): 1.79 µM
- TGI (SW-620 colon): 3.55 µM
- GI50 (RXF 393 renal): 1.85 µM
- TGI (RXF 393 renal): 3.76 µM
- GI50 (SK-MEL-2 melanoma): 2.88 µM
- TGI (SK-MEL-2 melanoma): 8.96 µM
- GI50 (786-0 renal): 10 µM
- TGI (786-0 renal): 31.4 µM
- GI50 (CCRF-CEM leukemia): 2.14 µM
- TGI (CCRF-CEM leukemia): 4.98 µM
- GI50 (SNB-19 CNS): 1.87 µM
- TGI (SNB-19 CNS): 3.97 µM
- GI50 (IGROV1 ovarian): 2.09 µM
- TGI (IGROV1 ovarian): 4.35 µM
- GI50 (A549 NSCLC): 3.55 µM
- TGI (A549 NSCLC): 69.7 µM
- GI50 (OVCAR-4 ovarian): 1.75 µM
- TGI (OVCAR-4 ovarian): 3.51 µM
- GI50 (ACHN renal): 1.79 µM
- TGI (ACHN renal): 3.35 µM
- GI50 (COLO 205 colon): 3.77 µM
- TGI (COLO 205 colon): 37.4 µM
- GI50 (UACC-62 melanoma): 1.69 µM
- TGI (UACC-62 melanoma): 3.26 µM
- GI50 (EKVX NSCLC): 2.15 µM
- TGI (EKVX NSCLC): 5.58 µM
- GI50 (SF-268 CNS): 1.99 µM
- TGI (SF-268 CNS): 4.66 µM
- GI50 (NCI-H460 lung): 3.18 µM
- TGI (NCI-H460 lung): 12.2 µM
